Reference: patent US20110098296A1, “Thiazole And Oxazole Kinase Inhibitors” (priority 2007, published 2011)

Legend:
Assay type in all cases: cell-based
BT474 tumor cells = assay: Method C: Cell Growth Inhibition Assay (CellTiter-Glo), BT474; conditions: Homo sapiens, BT-474, 72 h, 3 days, 4-parameter fit
HN5 tumor cells = assay: Method C: Cell Growth Inhibition Assay (CellTiter-Glo), HN5; conditions: Homo sapiens, 72 h, 3 days, 4-parameter fit
How it was run: (§1)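 Cells were seeded at 500 per well and dosed the next day with nine serial 1:3 compound dilutions (0.2% DMSO final), then grown 3 days at 37° C, 5% CO2. ATP was measured by CellTiter-Glo luminescence, and IC50 was interpolated by 4-parameter fit of percent inhibition versus DMSO controls.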

SK-MEL-28 tumor cells = assay: Method C: Cell Growth Inhibition Assay (CellTiter-Glo), SK-MEL-28; conditions: Homo sapiens, SK-MEL-28, 72 h, 3 days, 4-parameter fit
How it was run: as §1

In the case of `CCc1nc(-c2cccc(NC(=O)c3c(F)cccc3F)c2)c(-c2ccnc(Nc3cccc(CN4CCCC4)c3)n2)s1` [Example 115, N-{3-[2-Ethyl-5-(2-{[3-(1-pyrrolidinylmethyl)phenyl]amino}-4-pyrimidinyl)-1,3-thiazol-4-yl]phenyl}-2,6-difluorobenzamide], the IC50 (BT474 tumor cells) is reported as 100 to 1000 nM, the IC50 (HN5 tumor cells) is reported as 100 to 1000 nM and the IC50 (SK-MEL-28 tumor cells) is reported as over 1000 nM.
`Nc1nc(-c2cccc(C(=O)Nc3c(F)cccc3F)c2)c(-c2ccnc(Nc3cccc(CN4CCCC4)c3)n2)s1` [Example 77, 3-[2-Amino-5-(2-{[3-(1-pyrrolidinylmethyl)phenyl]amino}-4-pyrimidinyl)-1,3-thiazol-4-yl]-N-(2,6-difluorophenyl)benzamide] was tested, and the IC50 (BT474 tumor cells) was 100 to 1000 nM, the IC50 (HN5 tumor cells) was 100 to 1000 nM and the IC50 (SK-MEL-28 tumor cells) was over 1000 nM.
Compound `CCNc1nc(-c2cccc(NC(=O)C3CC3)c2)c(-c2ccnc(Nc3ccc(OCCN4CCCC4)c(Cl)c3)n2)s1` [Example 63, N-{3-[5-{2-[(3-Chloro-4-{[2-(1-pyrrolidinyl)ethyl]oxy}phenyl)amino]-4-pyrimidinyl}-2-(ethylamino)-1,3-thiazol-4-yl]phenyl}cyclopropanecarboxamide] has an IC50 (BT474 tumor cells) of 100 to 1000 nM, an IC50 (HN5 tumor cells) of 100 to 1000 nM and an IC50 (SK-MEL-28 tumor cells) of over 1000 nM.
`Cc1nc(-c2cccc(NC(=O)c3c(F)cccc3F)c2)c(-c2ccnc(Nc3ccc(OC4CCN(C(=O)OCc5ccccc5)CC4)c(F)c3)n2)s1` [Example 106] was tested, and the IC50 (BT474 tumor cells) was over 1000 nM and the IC50 (SK-MEL-28 tumor cells) was over 1000 nM.
Work on `COc1cc(Nc2nccc(-c3sc(N)nc3-c3cccc(NC(=O)c4c(F)cccc4F)c3)n2)cc(OC)c1OC` [Example 16, N-[3-(2-Amino-5-{2-[(3,4,5-trimethoxyphenyl)amino]pyrimidiN-4-yl}-1,3-thiazol-4-yl)phenyl]-2,6-difluorobenzamide] yielded an IC50 (BT474 tumor cells) of under 100 nM and an IC50 (HN5 tumor cells) of under 100 nM.
Compound `Cc1nc(-c2cccc(NC(=O)c3c(F)cccc3F)c2)c(-c2ccnc(Nc3ccc(OCCN(C)C)c(Cl)c3)n2)s1` [Example 103, N-[3-(5-{2-[(3-Chloro-4-{[2-(dimethylamino)ethyl]oxy}phenyl)amino]-4-pyrimidinyl}-2-methyl-1,3-thiazol-4-yl)phenyl]-2,6-difluorobenzamide] has an IC50 (BT474 tumor cells) of under 100 nM, an IC50 (HN5 tumor cells) of under 100 nM and an IC50 (SK-MEL-28 tumor cells) of over 1000 nM.
`Cc1cc(-c2sc(N)nc2-c2cccc(NC(=O)c3c(F)cccc3F)c2)nc(Nc2cccc(F)c2)n1` [Example 48, N-[3-(2-Amino-5-{2-[(3-fluorophenyl)amino]-6-methyl-4-pyrimidinyl}-1,3-thiazol-4-yl)phenyl]-2,6-difluorobenzamide] showed an IC50 (BT474 tumor cells) of over 1000 nM and an IC50 (HN5 tumor cells) of over 1000 nM.
For `Cc1nc(-c2cccc(NC(=O)c3cc(F)ccc3F)c2)c(-c2ccnc(Nc3ccc(OCCN(C)C)c(Cl)c3)n2)o1` [Example 142], the IC50 (HN5 tumor cells) was 100 to 1000 nM and the IC50 (SK-MEL-28 tumor cells) was over 1000 nM.
Compound `COc1ccc(Nc2nccc(-c3sc(N)nc3-c3cccc(NC(=O)c4c(F)cccc4F)c3)n2)cc1N1CCNCC1` [Example 18, N-[3-(2-Amino-5-{2-[(4-methoxy-3-piperaziN-1-ylphenyl)amino]pyrimidiN-4-yl}-1,3-thiazol-4-yl)phenyl]-2,6-difluorobenzamide] has an IC50 (BT474 tumor cells) of 100 to 1000 nM and an IC50 (SK-MEL-28 tumor cells) of over 1000 nM.
